In US20240279237A1, “FUSED BICYCLIC HETEROARYL COMPOUNDS USEFUL AS NLRP3 INHIBITORS” (Hoffmann-La Roche Inc., priority 2021, published 2024) one finds IC50 data, which are given here for 30 compounds.

Where a name gives a salt, the structure may show the parent alone.

The assay deals with T1, NLRP3 (Homo sapiens, UniProt Q96P20).
T1 construct: Seed THP-1 cells (25,000 cells/well) containing 1.0 μg/ml LPS in 40 μl of RPMI medium; host or cells: THP-1 cells
The assay can be described thus: THP-1 Cells Pyroptosis Assay. In kind it is cell-based. Conditions: THP-1 cells with 1.0 μg/ml LPS; compound 3 hours; nigericin 5 μM 1 hr; resazurin readout. As to the method:
The cells were routinely passaged and grown to confluency (˜10^6 cells/ml). On the day of the experiment, THP-1 cells were harvested and resuspended into RPMI medium (without FBS). The cells were then counted and viability (>90%) checked by Trypan blue (Sigma #T8154). […] To this diluted cell solution was added LPS (Sigma #L4524) to give a 1 μg/ml Final Assay Concentration (FAC). 40 μl of the final preparation was aliquoted into each well of a 96-well plate. The plate thus prepared was used for compound screening.
The following method step-by-step assay was followed for compound screening. • 1. […] Incubate for 3 hours at 37° C., 5% CO2 • 4. Add 5 μl nigericin (Sigma #N7143) (FAC 5 μM) to all wells • 5. Incubate for 1 hr at 37° C., 5% CO2 • 6. At the end of the incubation period, spin plates at 300×g for 3 mins and remove supernatant • 7. Then add 50 μl of resazurin (Sigma #R7017) (FAC 100 μM resazurin in RPMI medium without FBS) and incubate plates for a further 1-2 hours at 37° C. and 5% CO2 • 8.
On the technique in general: The colour change of resazurin is a common sign of viable cells or microbes.

One may read the IC50 as the concentration at which inhibition is half-maximal.

T1 sequence (Q96P20 whole entry): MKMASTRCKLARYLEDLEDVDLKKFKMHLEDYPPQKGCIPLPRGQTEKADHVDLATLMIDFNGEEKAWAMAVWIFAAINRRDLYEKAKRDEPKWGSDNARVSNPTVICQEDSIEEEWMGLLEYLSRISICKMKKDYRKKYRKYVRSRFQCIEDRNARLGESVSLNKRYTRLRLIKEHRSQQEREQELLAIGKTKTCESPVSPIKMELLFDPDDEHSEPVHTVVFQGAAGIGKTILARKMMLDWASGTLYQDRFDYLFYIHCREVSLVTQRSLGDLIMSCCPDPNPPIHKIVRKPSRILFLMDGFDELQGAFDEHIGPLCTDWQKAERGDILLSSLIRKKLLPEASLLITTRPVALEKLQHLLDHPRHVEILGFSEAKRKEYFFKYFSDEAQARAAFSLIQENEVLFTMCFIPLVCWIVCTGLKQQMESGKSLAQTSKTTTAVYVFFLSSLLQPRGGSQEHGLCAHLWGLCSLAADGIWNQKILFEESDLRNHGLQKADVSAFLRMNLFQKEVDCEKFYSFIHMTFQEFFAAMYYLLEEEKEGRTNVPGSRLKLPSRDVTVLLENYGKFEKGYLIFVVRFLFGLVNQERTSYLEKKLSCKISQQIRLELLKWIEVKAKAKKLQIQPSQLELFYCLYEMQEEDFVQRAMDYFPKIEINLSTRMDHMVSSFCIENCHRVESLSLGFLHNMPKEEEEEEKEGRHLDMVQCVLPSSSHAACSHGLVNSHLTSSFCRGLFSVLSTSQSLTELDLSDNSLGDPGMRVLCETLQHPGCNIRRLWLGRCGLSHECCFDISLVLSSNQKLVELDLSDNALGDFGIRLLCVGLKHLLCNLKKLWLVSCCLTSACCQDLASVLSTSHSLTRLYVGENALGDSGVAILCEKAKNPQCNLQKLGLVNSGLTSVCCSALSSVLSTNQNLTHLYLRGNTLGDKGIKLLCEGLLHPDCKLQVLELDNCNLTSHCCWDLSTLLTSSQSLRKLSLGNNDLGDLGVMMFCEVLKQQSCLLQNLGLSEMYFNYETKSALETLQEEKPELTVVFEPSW

`CCN1CCC[C@@H](Nc2nc3nc(-c4c(C)cc(Cl)c(F)c4O)ccc3o2)C1` [Example 21, 5-Chloro-2-[2-[[(3R)-1-ethyl-3-piperidyl]amino]oxazolo[4,5-b]pyridin-5-yl]-6-fluoro-3-methyl-phenol;2,2,2-trifluoroacetic acid salt] came in with an IC50 of 0.6 nM.

With `CCN1CCC[C@@H](Nc2nc3nc(-c4c(O)cc(Cl)cc4C#N)ccc3o2)C1` [Example 23, 5-Chloro-2-[2-[[(3R)-1-ethyl-3-piperidyl]amino]oxazolo[4,5-b]pyridin-5-yl]-3-hydroxy-benzonitrile], half-maximal inhibition (IC50) required 4.2 nM.

On to `CCN1CCCC(Nc2nc3nc(-c4c(O)cc(Cl)cc4COC)ccc3o2)C1` [Example 24, 5-Chloro-2-[2-[[(3R)-1-ethyl-3-piperidyl]amino]oxazolo[4,5-b]pyridin-5-yl]-3-(methoxymethyl)phenol;2,2,2-trifluoroacetic acid salt], for which the midpoint of inhibition, the IC50, lay at 1.7 nM.

For `CCN1CCC[C@@H](Nc2nc3nc(-c4c(C)cc(C#N)cc4O)ccc3o2)C1` [Example 25, 4-[2-[[(3R)-1-Ethyl-3-piperidyl]amino]oxazolo[4,5-b]pyridin-5-yl]-3-hydroxy-5-methyl-benzonitrile], inhibition was half-maximal at 1.6 nM (IC50).

As for `Cc1cc(C#N)cc(O)c1-c1ccc2oc(N[C@@H]3CCCN(C)C3)nc2n1` [Example 26, 3-Hydroxy-5-methyl-4-[2-[[(3R)-1-methyl-3-piperidyl]amino]oxazolo[4,5-b]pyridin-5-yl]benzonitrile], the IC50 stood at 2.8 nM.

In the case of `CCN1C[C@@H](O)C[C@@H](Nc2nc3nc(-c4c(C)cc(C#N)cc4O)ccc3o2)C1` [Example 28, 4-[2-[[(3R,5S)-1-Ethyl-5-hydroxy-3-piperidyl]amino]oxazolo[4,5-b]pyridin-5-yl]-3-hydroxy-5-methyl-benzonitrile;formic acid salt], inhibition was half-maximal at 4.6 nM (IC50).

As to `CN1CCCC(Nc2nc3nc(-c4c(O)cc(C(F)(F)F)cc4C(F)F)ccc3o2)C1` [Example 30, 3-(Difluoromethyl)-2-[2-[[(3R)-1-methyl-3-piperidyl]amino]oxazolo[4,5-b]pyridin-5-yl]-5-(trifluoromethyl)phenol;2,2,2-trifluoroacetic acid salt], the concentration for half-maximal inhibition (IC50) is 4.5 nM.

In turn, `CCN1CCC[C@@H](Nc2nc3nc(-c4c(O)cc(C(F)(F)F)cc4OC)ccc3o2)C1` [Example 31, 2-[2-[[(3R)-1-Ethyl-3-piperidyl]amino]oxazolo[4,5-b]pyridin-5-yl]-3-methoxy-5-(trifluoromethyl)phenol;2,2,2-trifluoroacetic acid salt] showed an IC50 of 4 nM.

On to `Cc1cc(C(F)(F)F)cc(O)c1-c1cc(C)c2oc(N[C@@H]3CCCN(C)C3)nc2n1` [Example 33, 3-Methyl-2-[7-methyl-2-[[(3R)-1-methyl-3-piperidyl]amino]oxazolo[4,5-b]pyridin-5-yl]-5-(trifluoromethyl)phenol;2,2,2-trifluoroacetic acid salt], for which 5.8 nM corresponded to half-maximal inhibition (IC50).

For `COc1cc(C)c(-c2ccc3oc(N[C@@H]4CCCN(C)C4)nc3n2)c(O)c1` [Example 34, 5-Methoxy-3-methyl-2-[2-[[(3R)-1-methyl-3-piperidyl]amino]oxazolo[4,5-b]pyridin-5-yl]phenol], the IC50 was found to be 18.9 nM.

With `CCN1CCC[C@@H](Nc2nc3nc(-c4ccc5c(c4O)CCO5)c(C)cc3o2)C1` [Example 35, 5-[2-[[(3R)-1-Ethyl-3-piperidyl]amino]-6-methyl-oxazolo[4,5-b]pyridin-5-yl]-2,3-dihydrobenzofuran-4-ol], 27.3 nM corresponded to half-maximal inhibition (IC50).

`Cc1cc(C2CC2)cc(O)c1-c1ccc2oc(N[C@@H]3CCCN(C)C3)nc2n1` [Example 36, 5-Cyclopropyl-3-methyl-2-[2-[[(3R)-1-methyl-3-piperidyl]amino]oxazolo[4,5-b]pyridin-5-yl]phenol] gave an IC50 of 32 nM.

Compound `Cc1cc(Cl)cc(O)c1-c1ccc2oc(N3CCOC4CCN(C)CC43)nc2n1` (stereo not drawn) [Example 42, 5-Chloro-3-methyl-2-[2-(6-methyl-3,4a,5,7,8,8a-hexahydro-2H-pyrido[4,3-b][1,4]oxazin-4-yl)oxazolo[4,5-b]pyridin-5-yl]phenol] displayed a half-maximal inhibitory concentration (IC50) of 5.1 nM.

`Cc1cc(C(F)(F)F)cc(O)c1-c1ccc2oc(NCC34CC(CN3)C4)nc2n1` [Example 43, 2-[2-(2-Azabicyclo[2.1.1]hexan-1-ylmethylamino)oxazolo[4,5-b]pyridin-5-yl]-3-methyl-5-(trifluoromethyl)phenol;dihydrochloride] yielded an IC50 of 30.5 nM.

The compound `Cc1cc(Cl)cc(O)c1-c1ccc2oc(N[C@@H]3CCCN(C)C3)nc2n1` [Example 44, 5-Chloro-3-methyl-2-[2-[[(3R)-1-methyl-3-piperidyl]amino]oxazolo[4,5-b]pyridin-5-yl]phenol] gave a half-inhibitory concentration (IC50) of 0.7 nM.

As for `CCN1CCC[C@@H](Nc2nc3nc(-c4c(C)cc(F)cc4O)ccc3o2)C1` [Example 45, 2-[2-[[(3R)-1-Ethyl-3-piperidyl]amino]oxazolo[4,5-b]pyridin-5-yl]-5-fluoro-3-methyl-phenol], the half-inhibitory concentration (IC50) came out at 0.9 nM.

Turning to `CCCN1CCC[C@@H](Nc2nc3nc(-c4c(C)cc(Cl)cc4O)ccc3o2)C1` [Example 46, 5-Chloro-3-methyl-2-[2-[[(3R)-1-propyl-3-piperidyl]amino]oxazolo[4,5-b]pyridin-5-yl]phenol], the IC50 worked out at 1 nM.

`Cc1cc(Cl)cc(O)c1-c1ccc2oc(N[C@@H]3CCCN(C4CCC4)C3)nc2n1` [Example 47, 5-Chloro-2-[2-[[(3R)-1-cyclobutyl-3-piperidyl]amino]oxazolo[4,5-b]pyridin-5-yl]-3-methyl-phenol] came in with a half-inhibitory concentration (IC50) of 1.2 nM.

Turning to `CCN1CCC[C@@H](Nc2nc3nc(-c4c(C)cc5c(c4O)CCO5)ccc3o2)C1` [Example 48, 5-[2-[[(3R)-1-Ethyl-3-piperidyl]amino]oxazolo[4,5-b]pyridin-5-yl]-6-methyl-2,3-dihydrobenzofuran-4-ol], the concentration for half-maximal inhibition (IC50) turned out to be 1.2 nM.

`Cc1cc(Cl)cc(O)c1-c1ccc2oc(N[C@@H]3C[C@H](O)CN(C)C3)nc2n1` [Example 49, (3S,5R)-5-[[5-(4-Chloro-2-hydroxy-6-methyl-phenyl)oxazolo[4,5-b]pyridin-2-yl]amino]-1-methyl-piperidin-3-ol] returned a concentration for half-maximal inhibition (IC50) of 1.6 nM.

As for `Cc1cc(F)cc(O)c1-c1ccc2oc(N[C@@H]3CCCN(C)C3)nc2n1` [Example 50, 5-Fluoro-3-methyl-2-[2-[[(3R)-1-methyl-3-piperidyl]amino]oxazolo[4,5-b]pyridin-5-yl]phenol], half-maximal inhibition (IC50) was put at 1.7 nM.

On to `CCN1C[C@@H](O)C[C@@H](Nc2nc3nc(-c4c(C)cc(C(F)(F)F)cc4O)ccc3o2)C1` [Example 51, (3S,5R)-1-Ethyl-5-[[5-[2-hydroxy-6-methyl-4-(trifluoromethyl)phenyl]oxazolo[4,5-b]pyridin-2-yl]amino]piperidin-3-ol], for which 1.8 nM corresponded to half-maximal inhibition (IC50).

On to `Cc1cc(C(F)(F)F)cc(O)c1-c1ccc2oc(N[C@@H]3CCCN(CCO)C3)nc2n1` [Example 52, 2-[2-[[(3R)-1-(2-Hydroxyethyl)-3-piperidyl]amino]oxazolo[4,5-b]pyridin-5-yl]-3-methyl-5-(trifluoromethyl)phenol], for which half-maximal inhibition (IC50) was put at 2.3 nM.

`CCN1CCC[C@@H](Nc2nc3nc(-c4c(O)cc(C(F)(F)F)cc4F)ccc3o2)C1` [Example 53, 2-[2-[[(3R)-1-Ethyl-3-piperidyl]amino]oxazolo[4,5-b]pyridin-5-yl]-3-fluoro-5-(trifluoromethyl)phenol]: the concentration for half-maximal inhibition (IC50) is 2.6 nM.

Turning to `CCN1C[C@@H](F)C[C@@H](Nc2nc3nc(-c4c(C)cc(Cl)cc4O)ccc3o2)C1` [Example 54, 5-Chloro-2-[2-[[(3R,5S)-1-ethyl-5-fluoro-3-piperidyl]amino]oxazolo[4,5-b]pyridin-5-yl]-3-methyl-phenol], the IC50 came out at 10.1 nM.

For `Cc1cc(C(F)(F)F)cc(O)c1-c1ccc2oc(N[C@@H]3C[C@H]3N(C)C)nc2n1` [Example 55, 2-[2-[[(1R,2R)-2-(Dimethylamino)cyclopropyl]amino]oxazolo[4,5-b]pyridin-5-yl]-3-methyl-5-(trifluoromethyl)phenol], inhibition was half-maximal at 17.8 nM (IC50).

In turn, `Cc1cc(C#N)cc(O)c1-c1ccc2oc(N[C@@H]3C[C@H](O)CN(C)C3)nc2n1` [Example 56, 3-Hydroxy-4-[2-[[(3R,5S)-5-hydroxy-1-methyl-3-piperidyl]amino]oxazolo[4,5-b]pyridin-5-yl]-5-methyl-benzonitrile] had a half-inhibitory concentration (IC50) of 18.9 nM.

Turning to `Cc1cc(C(F)(F)F)cc(O)c1-c1ccc2oc(NC[C@H]3C[C@@](C)(O)C3)nc2n1` [Example 57, cis-2-[2-[(3-Hydroxy-3-methyl-cyclobutyl)methylamino]oxazolo[4,5-b]pyridin-5-yl]-3-methyl-5-(trifluoromethyl)phenol], the IC50 was determined as 50.3 nM.

`Cc1cc(C(F)(F)F)cc(O)c1-c1ccc2oc(NC[C@H]3C[C@](C)(O)C3)nc2n1` [Example 58, trans-2-[2-[(3-hydroxy-3-methyl-cyclobutyl)methylamino]oxazolo[4,5-b]pyridin-5-yl]-3-methyl-5-(trifluoromethyl)phenol]: half-maximal inhibition (IC50) was put at 95.9 nM.

With `CCN1CC(CNc2nc3nc(-c4c(C)cc(Cl)cc4O)ccc3o2)C1` [Example 59, 5-Chloro-2-[2-[(1-ethylazetidin-3-yl)methylamino]oxazolo[4,5-b]pyridin-5-yl]-3-methyl-phenol], the concentration for half-maximal inhibition (IC50) amounted to 30.1 nM.
